Measurements taken from PMC7053198 (Theranostics, 2020).

Columns and labels:
[1] = test system: A375Pβ6 xenografts; conditions: mouse, in vivo, ip
[2] = test system: Panc1 cells
[3] = test system: Panc0403/PS1 xenografts; format: in vivo, mouse; conditions: n=4
[4] = test system: A375Ppuro cells
[5] = test system: Capan-1 PDAC xenografts; conditions: mouse, in vivo, ip
[6] = test system: Panc1 cell line; format: cell-based; conditions: after 30 min
[7] = test system: A375Ppuro cells; format: cell-based, human; conditions: 30 min at 4°C
[8] = test system: αvβ6-positive versus αvβ6-negative cell lines; format: cell-based
[9] = test system: Panc0403 cells
[10] = mouse, in vivo, ip
[11] = test system: A375Pβ6 cells
[12] = test system: A375Ppuro xenografts; format: in vivo, mouse; conditions: after 21 days
[13] = test system: Capan-1 cells
[14] = test system: Capan-1 cells; format: cell-based, human
[15] = in vivo; conditions: female, CD1 Nu/Nu, mouse, ip, 20 ug/kg
[16] = test system: A375Pβ6 cells; format: cell-based, human; conditions: 30 min at 4°C
[17] = in vivo, ip
[18] = test system: Capan-1 tumor xenografts; format: in vivo, mouse; conditions: n=3
[19] = test system: Panc0403/PS1 tumor xenografts; format: in vivo, mouse; conditions: n=4
[20] = test system: PANC354, PANC253 and PANC215 PDX PDAC cells; format: cell-based, human
[21] = test system: Colo357 cells

With COc1cc2c(cc1OCCCCCOc1cc3c(cc1OC)C(=O)N1C=C(C)C[C@H]1[C@H](O)N3C(=O)OCc1ccc(NC(=O)[C@H](C)NC(=O)[C@@H](NC(=O)CCOCCOCCOCCOCCOCCOCCOCCOCCNC(=O)CCN3C(=O)CC(SC[C@H](NC(=O)[C@@H](NC(=O)[C@H](CCCNC(=N)N)NC(=O)[C@H](C)NC(=O)[C@@H](NC(=O)[C@H](CCCCN)NC(=O)[C@H](CCC(N)=O)NC(=O)[C@H](C)NC(=O)[C@H](CC(C)C)NC(=O)[C@@H](NC(=O)[C@H](CCC(N)=O)NC(=O)[C@H](CC(C)C)NC(=O)[C@H](CC(=O)O)NC(=O)CNC(=O)[C@H](CCCNC(=N)N)NC(=O)[C@H](CC(C)C)NC(=O)[C@H](CC(N)=O)NC(=O)[C@@H]4CCCN4C(=O)[C@@H](NC(=O)[C@H](C)NC(=O)[C@H](CC(N)=O)NC(=O)CCCC[C@@H]4SC[C@@H]5NC(=O)N[C@@H]54)C(C)C)C(C)C)C(C)C)[C@@H](C)O)C(=O)O)C3=O)C(C)C)cc1)N=C[C@@H]1CC(C)=CN1C2=O (stereo partly drawn) [SG3299] the “reduced growth more than SG3511” value [1] was 2.3 fold, the “reduction of tumor growth compared with PBS treatment” value [1] was 79±7% and the “PDC αvβ6 Specificity Ratio” value [2] was 0.33. For the same molecule, the IC50 ([2]; 72 h) was 176 ± 116 nM, the “reduction of xenograft tumor growth compared with PBS treatment” value [3] was 75.8±6% and the “reduction of xenograft tumor growth compared with SG3511 therapy” value [3] was 60.4±9.8%. The “PDC αvβ6 Specificity Ratio” value [4] was 3.30, the IC50 ([4]; 72 h) was 30.6 ± 18.8 nM and the “effect on tumor growth” value [5] was “significant growth inhibition”. The “mice with tumors eliminated” value [5] was 4 out of 5, the “reduction of tumor growth compared to PBS” value [5] was 97.7±2% and the “reduction of tumor growth compared to SG3511” value [5] was 96.1±3.4%. The “levels of internalised conjugate in αvβ6-negative Panc1” value [6] was “no significant difference in the levels of internalised SG3299 or SG3511”, the “binding to A375Ppuro cells (MFI)” value [7] was “failed to bind” and the “higher toxicity at equal dose than the non-targeted PDC SG3511” value [8] was “up to 15 fold”. The “more toxic for αvβ6-expressing versus αvβ6-negative PDAC cell lines” value [8] was “up to 78 fold”, the “PDC αvβ6 Specificity Ratio” value [9] was 13.22 and the IC50 ([9]; 72 h) was 3.44 ± 3.29 nM. The detection in urine [10] was “No SG3299 was detected in the urine”, the “PDC αvβ6 Specificity Ratio” value [11] was 15.02 and the “more potent in A375Pβ6 cells than SG3511” value [11] was “over 15 fold”. The “more selective for A375Pβ6 cells than A375Ppuro cells” value [11] was 5.7 fold, the IC50 ([11]; 72 h) was 5.37 ± 5.23 nM and the “reduction in tumor size compared with vehicle (PBS)” value [12] was 34.8±4.6%. For the same molecule, the “PDC αvβ6 Specificity Ratio” value [13] was 2.80, the IC50 ([13]; 72 h) was 4.19 ± 3.76 nM and the “binding and internalisation in Capan-1 cells” value [14] was “strong binding and entry into the cytoplasm”. It also gave a level at time molar at 2 min [15] of 11 ± 4.3 nM, a level at time molar at 5 min [15] of 9.5 ± 4.3 nM and a level at time molar at 0.25 h [15] of 19.2 ± 4.9 nM. The level at time molar at 1 h [15] was 27.9 ± 4.2 nM, the “binding to A375Pβ6 cells (MFI)” value [16] was “dose-dependent binding” and the “adverse effects (mouse weight, behaviour, gross histology of lung, intestine and stomach)” value [17] was “no gross adverse effects”. For the same molecule, the “increase in DNA damage (γH2AX) compared with PBS” value [18] was 5.9 fold, the “increase in apoptosis (cleaved-caspase 3) from PBS” value [18] was 5.8 fold and the “increased vimentin compared with PBS” value [18] was 4.6 fold. The “increased α-sma expression from PBS” value [18] was 1.9 fold, the “reduction in CK-positive epithelial cells compared with PBS” value [18] was 79.2±11.2% and the “reduction in E-cadherin-positive epithelial cells compared with PBS” value [18] was 85±8%. For the same molecule, the “reduction in proliferation (Ki67 staining) compared with SG3511” value [18] was 66.2±15.7%, the “reduction in proliferation (Ki67 staining) compared with control” value [18] was 67.5±15% and the “increase in DNA damage (γH2AX) compared with PBS” value [19] was 5.5 fold. For the same molecule, the “increase in DNA damage (γH2AX) compared with SG3511” value [19] was 2.9 fold, the “reduction of epithelial cell number (CK) compared with PBS” value [19] was 44.2±18.1% and the “reduction of epithelial cell number (CK) compared with SG3511” value [19] was 41.2±19.1%. For the same molecule, the “reduction of epithelial cell number (E-cadherin) compared with PBS” value [19] was 46±11%, the “reduction of epithelial cell number (E-cadherin) compared with SG3511” value [19] was 32.1±34.6% and the “reduction of proliferation (Ki67) compared with PBS” value [19] was 60±13.1%. The “reduction of proliferation (Ki67) compared with SG3511” value [19] was 54.8±13.8%, the “reduction of β6 expression compared to PBS” value [19] was 73.4±11% and the “reduction of β6 expression compared to SG3511” value [19] was 61.1±16.1%. For the same molecule, the “reduction of the number of spheres formed compared with control-treated spheres” value [20] was 72±27%, the “PDC αvβ6 Specificity Ratio” value [21] was 10.97 and the IC50 ([21]; 72 h) was 2.24 ± 1.59 nM.
